According to PubChem BioAssay AID1645848:
In brackets after ≈: the same amount, converted by molar mass.

conditions: buffer; pH 7.4; 6.0 h; 150.0 µM

Row | SMILES | solubility kinetic
1 | O=[S+]([O-])(Nc1ccccc1)c1ccc(NCc2cccc(C(F)(F)F)c2Cl)cc1 | < 1 µg/mL
2 | CC(C)c1ccc(-n2ncc3c(=O)n(CC(=O)Nc4cc(F)ccc4Cl)cnc32)cc1 | < 1 µg/mL
3 | CNc1oc(-c2cccc3ccccc23)nc1C(=O)Nc1cccc(C#N)c1 | < 1 µg/mL
4 | CCOc1ccccc1C(=O)Nc1ccncc1C(=O)Nc1cccc(S(=O)(=O)C(F)(F)F)c1 | < 1 µg/mL
5 | O=C(Cc1ccc(Cl)c(Cl)c1)Nc1ccc([S+](=O)([O-])Nc2ccccn2)cc1 | < 1 µg/mL
6 | Cc1ccc(S(=O)(=O)Nc2cnccc2C(=O)Nc2ccccc2)cc1 | > 54 µg/mL
7 | COc1cc(/C=C(\C#N)C(=O)c2ccc(O)c(O)c2)cc(I)c1O | 50.3 µg/mL (≈ 115 µM)
8 | Cc1nc([N+](=O)[O-])cn1-c1ccc([N+](=O)[O-])cc1 | > 37 µg/mL
9 | CC[C@H](NC(=O)c1c(O)c(-c2ccccc2)nc2ccccc12)c1ccccc1 | 31.7 µg/mL (≈ 82.8 µM)
10 | O=S(=O)(Nc1cccc2ccccc12)c1ccc(NCc2ccc(Br)cc2O)cc1 | < 1 µg/mL
11 | O=S(=O)(Nc1nccs1)c1ccc(NCc2ccc(Cl)cc2O)cc1 | 1.32 µg/mL (≈ 3.34 µM)
12 | CC1(C)CNc2cc(NC(=O)c3cccnc3NCc3ccncc3)ccc21 | 41.8 µg/mL (≈ 112 µM)
13 | O=C(Nc1nc(-c2ccccc2)cs1)c1ccncc1NS(=O)(=O)c1cccc2cccnc12 | 39.8 µg/mL (≈ 81.6 µM)
14 | O=C(Nc1nc(-c2ccccc2)cs1)c1ccccc1-n1cnnn1 | < 1 µg/mL
15 | O=S(=O)(Nc1nc2n(n1)C(c1ccccc1)C=C(c1ccc(Cl)cc1)N2)c1ccccc1 (stereo not drawn) | 1.09 µg/mL (≈ 2.36 µM)
16 | O=[S+]([O-])(Nc1ccc(N2CCNCC2)cc1)c1ccc(NCc2ccc(Cl)cc2O)cc1 | 25.2 µg/mL (≈ 53.3 µM)
17 | COC(=O)c1sccc1NC(=O)c1sccc1C | < 1 µg/mL
18 | O=C(Nc1ncc(Cc2ccc(C(F)(F)F)cc2)s1)c1ccc(-c2ccc([N+](=O)[O-])cc2)o1 | < 1 µg/mL
19 | CCc1ccc(CNc2ccc3c(c2)ncn3C(C)(C)C)cc1 | 10.8 µg/mL (≈ 35.3 µM)
20 | Cc1ccnc(N=C(N)N2CCN(c3cccc(C(F)(F)F)c3)CC2)c1 | 24.4 µg/mL (≈ 67.2 µM)
21 | Cc1ccc(S(=O)(=O)NCC(=O)Nc2nc(-c3ccccc3)cs2)cc1 | < 1 µg/mL
22 | O=C(c1cccs1)c1nonc1C(=O)c1cccs1 | < 1 µg/mL
23 | O=[S+]([O-])(Nc1ccccc1)c1ccc(NCc2cccc(Cl)c2F)cc1 | < 1 µg/mL
24 | O=C(Nc1ccc(S(=O)(=O)Nc2ncc(-c3ccccc3)s2)cc1)c1ccc2ccccc2c1 | < 1 µg/mL
25 | CCS(=O)(=O)c1nc(-c2ccc(Cl)cc2)cc(C(F)(F)F)n1 | 8.53 µg/mL (≈ 24.3 µM)
26 | Cc1cccc(C)c1C(=O)Nc1cccc([S+](=O)([O-])N(C)C)c1 | 41.4 µg/mL (≈ 124 µM)
27 | Fc1ccccc1-c1ccc(Nc2nc(-c3ccncc3)nc3ccccc23)cc1F | < 1 µg/mL

Row | SMILES | solubility kinetic
28 | CCCCN(C)C(=O)c1c(C)sc2ccn(CCC)c(=O)c12 | > 32 µg/mL
29 | O=C(NCc1ccc(S(=O)(=O)c2cccc(C(F)(F)F)c2)cc1)c1cnc2[nH]ncc2c1 | 5.88 µg/mL (≈ 12.8 µM)
30 | C#CC1(O)CCC2C3CCC4=C/C(=N/OCC(=O)NCC(=O)NC(C(=O)O)C(C)C)CC[C@]4(C)C3CC[C@@]21C (stereo partly drawn) | > 80 µg/mL
31 | CN(C)c1ccc(-c2cc[nH]c(=O)c2N)cc1 | > 34 µg/mL
32 | O=C1Nc2ccc(Cl)cc2/C1=C\c1cc(Cl)c(O)c(Cl)c1 | 19 µg/mL (≈ 55.8 µM)
33 | O=C(NC1CC1)c1nc(-c2cccnc2)c2cnccn12 | 31.6 µg/mL (≈ 113 µM)
34 | O=C(CCCCCCC(=O)Nc1ccccc1)NO | > 39 µg/mL
35 | O=S(=O)(Nc1ccc(-c2ccccc2)cc1)c1ccc(NCc2ccc(Br)cc2O)cc1 | < 1 µg/mL
36 | N#Cc1ccccc1CSc1nc2ncc(Br)cc2[nH]1 | 1.09 µg/mL (≈ 3.16 µM)
37 | FC(F)(F)c1ccccc1-c1nc(NCc2ccc(-c3cccnc3)cc2)c2ccccc2n1 | < 1 µg/mL
38 | Cc1csc2nc(-c3cccc(NC(=O)c4ccccc4Cl)c3)cn12 | < 1 µg/mL
39 | O=S(=O)(Nc1ccccc1)c1ccc(NCc2ccc(Br)cc2O)cc1 | 1.42 µg/mL (≈ 3.27 µM)
40 | CCC[C@@H]1CN(C(=O)c2ccc(-c3ccc(C)o3)cc2)C[C@H]1NC(C)=O | > 52 µg/mL
41 | Cc1ccc(S(=O)(=O)Nc2cnccc2C(=O)Nc2nc(-c3ccccc3)cs2)cc1 | 9.42 µg/mL (≈ 20.9 µM)
42 | Cc1ccc(S(=O)(=O)n2cc(C(=O)Nc3ccc(-c4ccccc4)cc3)c3ccccc32)cc1 | < 1 µg/mL
43 | Cc1cccc(-n2nc(C)c3c2NC(=O)CSC3c2ccccc2Cl)c1 (stereo not drawn) | 2.15 µg/mL (≈ 5.61 µM)
44 | C=C1[C@@H](C)C2[C@H](Cc3ccccc3)NC(=O)[C@@]23C(/C=C/C[C@H](C)C[C@@](C)(O)/C=C/[C@@H]3OC(C)=O)[C@@H]1O (stereo partly drawn) | 1.9 µg/mL (≈ 3.85 µM)
45 | CCOc1ccc(CCNC(=O)c2cccc(C(=O)c3ccccc3)c2)cc1OCC | 3.12 µg/mL (≈ 7.47 µM)
46 | NC(=O)C1CCN(c2ncc(-c3cccc(N4CCCCC4)c3)s2)CC1 | 32.9 µg/mL (≈ 88.8 µM)
47 | Cc1ccc(S(=O)(=O)Nc2ccccc2C(=O)Nc2ccc(-c3ccccc3)nn2)cc1 | < 1 µg/mL
48 | Cc1ccccc1S(=O)(=O)Nc1cnccc1C(=O)Nc1nc(-c2ccccc2)cs1 | 49.9 µg/mL (≈ 111 µM)
49 | O=C(Cc1ccc2ccccc2c1)Nc1ccc(S(=O)(=O)Nc2nccs2)cc1 | 0.228 µg/mL (≈ 0.538 µM)
50 | CN(C)CCNC(=O)c1nc2nc(-c3ccccc3)c(-c3cccc(F)c3)cc2n1C | 51.3 µg/mL (≈ 123 µM)
51 | O=C(Nc1ccc([N+](=O)[O-])cc1Cl)c1cc(Cl)ccc1O | 1.14 µg/mL (≈ 3.47 µM)
52 | CCCCCOc1ccccc1/C(=C\SC)n1ccnc1 | < 1 µg/mL
53 | CCN(CC)C(=O)c1ccc(O)c(OC)c1 | 27.3 µg/mL (≈ 122 µM)

Continued, values first:

Row | solubility kinetic | SMILES
54 | > 64 µg/mL | COc1c(C)c2c(c(O)c1C/C=C(\C)CCC(=O)OCCN1CCOCC1)C(=O)OC2
55 | < 1 µg/mL | Cc1ccc(S(=O)(=O)Nc2cc(Cl)ccc2C(=O)Nc2nc(-c3ccccc3)cs2)cc1
56 | > 42 µg/mL | Nc1nc2c(s1)C(c1ccc(F)c(F)c1)CC(=O)N2 (stereo not drawn)
57 | < 1 µg/mL | COc1ccc(C(=O)Nc2nc(-c3ccccc3)cs2)c(OC)c1
58 | 4.07 µg/mL (≈ 10.7 µM) | Cc1nn2c(c1-c1ccccc1-c1ccccc1)N(Cc1ccccc1)CCC2
59 | 7.38 µg/mL (≈ 17.1 µM) | COc1ccc2[nH]c3c(c2c1)CCNC31CCN(S(=O)(=O)c2c(C)noc2C)CC1
60 | > 61 µg/mL | COc1cc([C@@H]2c3cc4c(cc3[C@H](O)[C@H]3COC(=O)[C@H]23)OCO4)cc(OC)c1OC
61 | 7.87 µg/mL (≈ 17.9 µM) | O=C1CCCC2=C1C(c1ncccc1Br)N=C(Nc1nc3ccccc3o1)N2 (stereo not drawn)
62 | 8.46 µg/mL (≈ 18 µM) | COc1ccc(S(=O)(=O)N2CCCCCC2)cc1NC(=O)Cc1n[nH]c(=O)c2ccccc12
63 | > 38 µg/mL | O=C(Nc1cn[nH]c1-c1nc2ccc(CN3CCOCC3)cc2[nH]1)NC1CC1
64 | 1.37 µg/mL (≈ 3.48 µM) | CCCC1=Nc2cc(C(=O)NC3CCCCC3)ccc2Sc2ccc(C)cc21
65 | 45.4 µg/mL (≈ 116 µM) | COc1ccc(CNc2ccc(S(=O)(=O)Nc3nccs3)cc2)c(O)c1
66 | 14.6 µg/mL (≈ 48.3 µM) | Cc1ccc(-c2nnc(N3CCC(C(N)=O)CC3)s2)cc1
67 | < 1 µg/mL | Cc1ccc2c(c1)N(S(=O)(=O)c1cc(-c3onc(C)c3C)ccc1C)CCO2
68 | < 1 µg/mL | O=C(Nc1ccc(Cl)c(S(=O)(=O)N2CCOCC2)c1)c1ccc(S(=O)(=O)N2CCOCC2)cc1
69 | 3.6 µg/mL (≈ 8.88 µM) | COc1cccc(CNc2ccc(S(=O)(=O)Nc3nccs3)cc2)c1OC
70 | > 43 µg/mL | COc1ccc2c(ccn2CCC(=O)Nc2ccc3c(c2)C(=O)N2CCC[C@H]2C(=O)N3)c1
71 | 41.7 µg/mL (≈ 110 µM) | NC(=O)COc1ccc(C2CC(=O)Nc3n[nH]c(Nc4ccccc4)c32)cc1 (stereo not drawn)
72 | > 53 µg/mL | CN(C)C(=O)c1cc(-c2ccc(S(C)(=O)=O)cc2)c2cnn(C)c2n1
73 | < 1 µg/mL | COC(=O)C1=C(C)NC(C)=C(C(=O)O[C@@H]2CCCN(Cc3ccccc3)C2)[C@@H]1c1cccc([N+](=O)[O-])c1
74 | 8.62 µg/mL (≈ 16.7 µM) | COc1cc2ncnc(Oc3cccc(NC(=O)Nc4cc(C(C)(C)C(F)(F)F)on4)c3)c2cc1OC
75 | 3.11 µg/mL (≈ 6.94 µM) | COc1ccc(NC(=O)c2[nH]c(C)c(C(C)=O)c2C)cc1S(=O)(=O)N1CCCCCC1
76 | < 1 µg/mL | CCS(=O)(=O)c1ncc(N(Cc2ccc(F)cc2)Cc2ccco2)c(C(=O)Nc2cc(C)ccc2C)n1

Row | solubility kinetic | SMILES
77 | > 40 µg/mL | Cc1nc(NCc2ccco2)nc2c1C(=O)CC(C)C2 (stereo not drawn)
78 | < 1 µg/mL | COc1ccc(-c2ccc3nc(-c4ccccc4C)oc3c2)c(OC)c1OC
79 | < 1 µg/mL | Cc1ccc(-c2cc(C(=O)Nc3cccc(S(N)(=O)=O)c3)c3ccccc3n2)cc1C
80 | 31.9 µg/mL (≈ 94.8 µM) | COc1ccc(-n2c(C)cc(-c3nnc4n3CCCCC4)c2C)cc1
81 | > 54 µg/mL | CC(=O)c1ccc(N2CCN(C(=O)c3ccc4c(c3)CC(=O)N4)CC2)cc1
82 | 4.52 µg/mL (≈ 13.1 µM) | NC(=O)C1CCN(c2ncc(-c3ccc4c(c3)OCCO4)s2)CC1
83 | 40 µg/mL (≈ 115 µM) | Cc1cc(N2CCN(c3ccccc3)CC2)nc(-n2nc(C)cc2C)n1
84 | 12.1 µg/mL (≈ 30.8 µM) | CN1Cc2c(cc(N3CCOCC3)nc2-c2ccccc2OC(F)(F)F)C1=O
85 | > 50 µg/mL | NC(=O)C1CCN(c2nccc(-c3ccc4c(c3)OCCO4)n2)CC1
86 | 45.9 µg/mL (≈ 112 µM) | CN1C(=O)c2ccccc2[S@](=O)c2ccc(C(=O)NCCc3cccs3)cc21
87 | 9.71 µg/mL (≈ 19.5 µM) | COc1ccc(CCN2C(=O)N(c3ccc(F)cc3)C(=O)C2CC(=O)Nc2ccc(F)c(F)c2)cc1 (stereo not drawn)
88 | 1.19 µg/mL (≈ 2.67 µM) | CCc1ccc(NC(=O)c2[nH]c(C)c(C(C)=O)c2C)cc1[S+](=O)([O-])N1CCCCCC1
89 | < 1 µg/mL | Cc1ccc(N(C)S(=O)(=O)c2ccc(-c3cnc(C4CC4)o3)cc2)cc1
90 | 2.85 µg/mL (≈ 7.13 µM) | CC(=O)c1ccc(N2CCN(S(=O)(=O)c3ccc4c(c3)CC(=O)N4)CC2)cc1
91 | 12.6 µg/mL (≈ 36.7 µM) | Cc1noc(C)c1-c1ccc2ncnc(NC(C)c3ccccc3)c2c1 (stereo not drawn)
92 | < 1 µg/mL | C[S+](=O)([O-])N1CCC(Cn2ccc3c(N4CCOCC4)nc(-c4cccc5[nH]ccc45)cc32)CC1
93 | > 43 µg/mL | CCN1CCN(C(=O)CCCn2nc(C)c3c(C)n(-c4ccc(C)cc4)nc3c2=O)CC1
94 | > 50 µg/mL | O=C(c1ccc2c(c1)ncn2-c1ccc(Cl)cc1)N1CCCCC1
95 | 12 µg/mL (≈ 22.7 µM) | Cc1cc(C)c2nc(-c3ccccn3)cc(C(=O)Nc3ccc(S(=O)(=O)Nc4onc(C)c4C)cc3)c2c1
96 | 4.37 µg/mL (≈ 10.3 µM) | CN1C(=O)c2ccccc2[S@](=O)c2ccc(C(=O)NCc3ccc(Cl)cc3)cc21
97 | 19.7 µg/mL (≈ 44.3 µM) | Cc1cc(C)nc(NC(=S)N2CCN(c3cc(C(F)(F)F)nc4ccccc34)CC2)c1
98 | < 1 µg/mL | COc1cccc(CNc2ccc(S(=O)(=O)Nc3ccc4ccccc4c3)cc2)c1O
